Data on four compounds can be found in publication PMC8348589, “Scarlet Flax Linum grandiflorum (L.) In Vitro Cultures as a New Source of Antioxidant and Anti-Inflammatory Lignans” (Molecules, 2021).

As usually defined, the IC50 is the concentration needed to halve the response being measured.

Values joined by “and” are separate entries in the source; they are usually repeats but may differ in a detail not shown here. Equal entries are not always repeated. Where two headings read alike, the source gives them in different places.

Assay [1] has as its target T1, COX-2 (Homo sapiens, UniProt P35354).
T1 sequence (P35354 18-604): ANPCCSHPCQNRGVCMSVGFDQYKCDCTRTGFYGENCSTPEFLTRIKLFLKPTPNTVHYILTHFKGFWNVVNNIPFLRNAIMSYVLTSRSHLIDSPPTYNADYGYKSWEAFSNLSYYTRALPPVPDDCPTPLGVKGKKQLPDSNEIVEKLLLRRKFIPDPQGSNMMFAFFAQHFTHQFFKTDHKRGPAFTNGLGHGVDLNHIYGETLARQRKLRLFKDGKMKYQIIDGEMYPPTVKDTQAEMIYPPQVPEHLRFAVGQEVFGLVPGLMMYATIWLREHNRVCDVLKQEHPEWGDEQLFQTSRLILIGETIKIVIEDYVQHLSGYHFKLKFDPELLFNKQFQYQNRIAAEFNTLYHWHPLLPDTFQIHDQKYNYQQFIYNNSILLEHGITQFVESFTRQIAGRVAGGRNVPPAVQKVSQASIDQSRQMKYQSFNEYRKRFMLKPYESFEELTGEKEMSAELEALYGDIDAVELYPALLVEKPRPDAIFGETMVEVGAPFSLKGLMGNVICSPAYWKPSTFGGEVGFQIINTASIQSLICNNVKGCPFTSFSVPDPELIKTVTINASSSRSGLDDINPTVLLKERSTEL
Description: COX-2 inhibition assay (Cayman Chem kit).
Description: (§2) COX-1 (Ovine) and COX-2 (Human) inhibition assays were performed using the corresponding Cayman Chem kits. The assays were performed according to the manufacturer’s instructions. Arachidonic acid (1.1 mM) was used as substrate. Reaction was followed at 590 nm in a BioTek Instrument Synergy II microplate reader.

Assay [2] concerns the target T2, COX-1 (Ovis aries, UniProt P05979).
T2 sequence (P05979 25-600): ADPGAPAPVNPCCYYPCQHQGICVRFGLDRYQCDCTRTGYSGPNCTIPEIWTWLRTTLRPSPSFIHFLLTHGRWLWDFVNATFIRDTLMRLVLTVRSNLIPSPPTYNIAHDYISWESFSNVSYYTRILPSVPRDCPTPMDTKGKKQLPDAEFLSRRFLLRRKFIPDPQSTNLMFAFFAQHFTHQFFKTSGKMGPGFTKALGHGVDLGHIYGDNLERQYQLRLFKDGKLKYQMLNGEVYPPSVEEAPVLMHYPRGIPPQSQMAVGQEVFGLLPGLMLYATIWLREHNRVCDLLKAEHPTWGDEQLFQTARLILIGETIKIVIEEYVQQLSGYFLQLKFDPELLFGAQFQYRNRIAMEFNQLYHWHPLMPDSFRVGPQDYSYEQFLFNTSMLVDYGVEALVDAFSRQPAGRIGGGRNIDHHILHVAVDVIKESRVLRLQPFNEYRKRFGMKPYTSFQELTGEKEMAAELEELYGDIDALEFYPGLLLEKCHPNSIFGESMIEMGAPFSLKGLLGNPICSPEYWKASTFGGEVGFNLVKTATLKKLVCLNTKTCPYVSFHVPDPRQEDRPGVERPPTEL
The assay is described as follows: COX-1 inhibition assay (Cayman Chem kit).
Description: as §2

For assay [3], the system named is L. grandiflorum hypocotyl and cotyledon explants. The assay is described as follows: Callus induction frequency on MS medium with PGRs. The class given is cell-based, Linum grandiflorum. The conditions noted are these: 1.0 mg/L NAA. How it is done: (§1) Both the cotyledon (0.5 cm) and hypocotyl (1.0 cm) explants of L. grandiflorum of 5-day old seedlings, grown in vitro, were employed as the source of the explants and inoculated on three different experimental media containing sucrose (30g/L), agar (8 g/L) along with various concentrations of α-naphthaleneacetic acid (NAA: 0.1, 1.0, 2.5, 5.0, 10 mg/L), thidiazuron (TDZ: 0.1, 1.0, 2.5, 5.0, 10 mg/L) and a combination of both (TDZ: 0.1, 1.0, 2.5, 5.0, 10 mg/L and NAA: 0.1 mg/L constant) and placed in a growth room at 25 ± 2 °C temperature, using light intensity of 40 μmol/m^2/s at around a 16/8 h (light/dark) photoperiod. Four explants were inoculated for each condition. All experiments were conducted twice for each treatment. Media without PGRs addition were used as controls. The cultures were harvested at day 30 after inoculation. Biomass determination (fresh weights (FW) and dried weight (DW)) were determined for each condition. For dry weight (DW) estimation, cells were frozen and lyophilized 48 h.

The subject of assay [4] is L. grandiflorum callus cultures. The assay is described as follows: Biomass accumulation of callus cultures. The format is cell-based, Linum grandiflorum. To be noted: harvested day 30. How it is done:
as §1

Setting [5] is: read-out: COX-2 IC50 (in µM), purified (neo)lignans.
[6] abbreviates: read-out: COX-1 IC50 (in µM), purified (neo)lignans.

As to `COc1cc(C2Oc3c(OC)cc(/C=C/CO)cc3C2CO)ccc1O` (stereo not shown) [DCA, dehydrodiconiferyl alcohol], the IC50 in assay [1] (setting [5]) stood at 19.2 ± 2.5 µM; in assay [2] (setting [6]), 51.3 ± 0.3 µM.
Consider `COc1cc(C[C@H]2CO[C@H](c3ccc(O)c(OC)c3)[C@H]2CO)ccc1O` [LARI, lariciresinol], for which the IC50 in assay [1] stood at 34.6 ± 2.9 µM; in assay [2], 24.2 ± 6.9 µM.
Take `O=C(O)Cc1cccc2ccccc12` [NAA, α-naphthalene acetic acid]: the callus induction frequency in assay [3] (cotyledon explants) is 87%; in assay [3] (hypocotyl explants), 95% and 95.2%. For the same compound, the “biomass accumulation (DW)” value in assay [4] (cotyledon-derived callus, 1.0 mg/L NAA) is reported as 11.4 g/L; in assay [4] (hypocotyl-derived callus), 13 g/L.
Take `COc1cc(C[C@@H](CO)[C@H](CO)Cc2ccc(O)c(OC)c2)ccc1O` [SECO, secoisolariciresinol]: the IC50 was 32.7 ± 0.8 µM in assay [1] (setting [5]) and 21.7 ± 1.9 µM in assay [2] (setting [6]).
